Like-named read-outs stand apart in the source and are kept apart here.
Experiments:
[1] = system: OCILY7; test: Cell viability assay; type: cell-based; conditions: Homo sapiens, OCI-Ly7, 24 h; OCILY7 (NHL); read-out: AZD5991 24h GI50
Protocol: (§1) Cells were plated at 3000 cells/well in 384-well white plates in corresponding cell growth media. […] Caspase-3/7 activation was subsequently determined using a Caspase-Glo 3/7 Reagent (Promega) and viability was assayed using the CellTiter-Glo Reagent (Promega) as described in manufacturer’s instructions. Dose–response curves for caspase-3/7 activation and viability were plotted and analyzed (including EC50 and GI50 determination) using GraphPad Prism.

[2] = system: H446; test: Cell viability assay; type: cell-based; conditions: Homo sapiens, NCI-H446, 24 h; H446 (Lung); read-out: AZD5991 24h GI50
Protocol: as §1

[3] = system: LK2; test: Cell viability assay; type: cell-based; conditions: Homo sapiens, LK-2, 24 h; LK2 (Lung); read-out: AZD5991 24h GI50
Protocol: as §1

[4] = system: OCIAML3; test: Caspase-3/7 activation assay; type: cell-based; conditions: Homo sapiens, OCI-AML-3, 6 h
Protocol: as §1

[5] = system: H460; test: Cell viability assay; type: cell-based; conditions: Homo sapiens, NCI-H460, 24 h; H460 (Lung); read-out: AZD5991 24h GI50
Protocol: as §1

[6] = system: Nomo1; test: Cell viability assay; type: cell-based; conditions: Homo sapiens, NOMO-1, 24 h; Nomo1 (AML); read-out: AZD5991 24h GI50
Protocol: as §1

[7] = system: OCILY10; test: Cell viability assay; type: cell-based; conditions: Homo sapiens, OCI-Ly10, 24 h; OCILY10 (NHL); read-out: AZD5991 24h GI50
Protocol: as §1

[8] = system: SKMEL2; test: Cell viability assay; type: cell-based; conditions: Homo sapiens, SK-MEL-2, 24 h; SKMEL2 (Skin); read-out: AZD5991 24h GI50
Protocol: as §1

[9] = system: MWCL1; test: Cell viability assay; type: cell-based; conditions: 24 h; MWCL1 (NHL); read-out: AZD5991 24h GI50
Protocol: as §1

[10] = system: Kasumi3; test: Cell viability assay; type: cell-based; conditions: Kasumi-3, 24 h; Kasumi3 (AML); read-out: AZD5991 24h GI50
Protocol: as §1

[11] = system: SNU16; test: Cell viability assay; type: cell-based; conditions: Homo sapiens, SNU-16, 24 h; SNU16 (GI); read-out: AZD5991 24h GI50
Protocol: as §1

[12] = system: MM1R; test: Cell viability assay; type: cell-based; conditions: MM.1R, 24 h, read-out: AZD5991 24h GI50
Protocol: as §1

[13] = system: Bjab; test: Cell viability assay; type: cell-based; conditions: Homo sapiens, 24 h; Bjab (NHL); read-out: AZD5991 24h GI50
Protocol: as §1

[14] = system: H1395; test: Cell viability assay; type: cell-based; conditions: Homo sapiens, NCI-H1395, 24 h; H1395 (Lung); read-out: AZD5991 24h GI50
Protocol: as §1

[15] = system: HBL1; test: Cell viability assay; type: cell-based; conditions: 24 h; HBL1 (NHL); read-out: AZD5991 24h GI50
Protocol: as §1

[16] = system: MOLP8; test: Cell viability assay; type: cell-based; conditions: Homo sapiens, MOLP-8, 24 h; MOLP8 (MM); read-out: AZD5991 24h GI50
[17] = system: GIST 430/654; test: Cell viability assay; type: cell-based; conditions: 24 h; GIST 430/654 (GI); read-out: AZD5991 24h GI50
Protocol: as §1

[18] = system: MOLM-13 leukemic cells; test: MOLM-13 disseminated AML model; type: in vivo, mice; conditions: venetoclax 100 mg kg^−1 p.o. daily, AZD5991 60 mg kg^−1 i.v. weekly, after 10 days
From the text: MOLM-13: These studies complied with all relevant ethical regulations described in the guidelines established by GV-SOLAS Institutional Animal Care and Use Committee. Female CIEA-NOG mice were purchased from Taconic. Mice between 5 and 8 weeks old were tail vein injected with five million MOLM-13 cells. Treatment started 3 days after implantation. AZD5991, venetoclax, and vehicle were formulated and administered as mentioned above. Bone marrow and peripheral blood were collected 10 days post-treatment initiation, followed by red cell lysis (ACK lysis buffer), washes with FC buffer (PBS + 2% FCS) and cell staining with AquaZombie live/dead stain (cat#423102, Biolegend) containing antibodies against human CD45 (cat#564105, BDBiosciences) and human HLA-ABC (cat#561346, BDBiosciences) or isotype controls (mIgG1 cat#552834, BDBiosciences; mIgG1 cat#561504, BDBiosciences). Samples were washed with FC buffer and data acquired on an Attune NXT cytometer and analyzed using FlowJo software. Gating was performed on single/live/FCS vs. SSC/HLA-ABC vs. hCD45 double positive cells (Supplementary Figure 8).

[19] = system: SKMEL24; test: Cell viability assay; type: cell-based; conditions: Homo sapiens, SK-MEL-24, 24 h; SKMEL24 (Skin); read-out: AZD5991 24h GI50
Protocol: as §1

[20] = system: Will2; test: Cell viability assay; type: cell-based; conditions: 24 h; Will2 (NHL); read-out: AZD5991 24h GI50
Protocol: as §1

[21] = system: LUDLU1; test: Cell viability assay; type: cell-based; conditions: LUDLU-1, 24 h; LUDLU1 (Lung); read-out: AZD5991 24h GI50
Protocol: as §1

[22] = system: WSUNHL; test: Cell viability assay; type: cell-based; conditions: Homo sapiens, WSU-NHL, 24 h, read-out: AZD5991 24h GI50
Protocol: as §1

[23] = system: MDAMB468; test: Cell viability assay; type: cell-based; conditions: Homo sapiens, MDA-MB-468, 24 h; MDAMB468 (Breast); read-out: AZD5991 24h GI50
Protocol: as §1

[24] = system: CMK; test: Caspase-3/7 activation assay; type: cell-based; conditions: Homo sapiens, 6 h
Protocol: as §1

[25] = system: MV411; test: Cell viability assay; type: cell-based; conditions: Homo sapiens, MV4-11, 24 h; MV411 (AML); read-out: AZD5991 24h GI50
Protocol: as §1

[26] = system: OCIM1; test: Caspase-3/7 activation assay; type: cell-based; conditions: OCI-M1, 6 h
Protocol: as §1

SMILES: Cc1c2c(nn1C)CSCc1cc(n(C)n1)CSc1cc(c3ccccc3c1)OCCCc1c(C(=O)O)n(C)c3c-2c(Cl)ccc13 (atropisomer, axis not shown; (Ra)) [(Ra)-7]
- GI50 [1]: 24 nM
- GI50 [2]: 319 nM
- GI50 [3]: > 30000 nM
- EC50 ([4]; read-out: 6h caspase EC50, OCIAML3, single agent): > 333 nM
- EC50 ([4]; read-out: AZD5991 6h EC50, OCIAML3 (AML), caspase 3/7 activation): 782 nM
- GI50 [5]: 26400 nM
- GI50 [6]: 21 nM
- GI50 [7]: 119 nM
- GI50 [8]: 9310 nM
- GI50 [9]: 1650 nM
- GI50 [10]: 172 nM
- GI50 [11]: 139 nM
- GI50 [12]: 87 nM
- GI50 [13]: 16 nM
- GI50 [14]: 12000 nM
- GI50 [15]: 8320 nM
- GI50 [16]: 52 nM
- GI50 [17]: 1620 nM
- percentage of HLA-ABC+ hCD45+ leukemic cells in peripheral blood vs. vehicle [18]: significantly reduced
- percentage of leukemic cells in bone marrow [18]: reduced
- GI50 [19]: 17900 nM
- GI50 [20]: 43 nM
- GI50 [21]: 991 nM
- GI50 [22]: 221 nM
- GI50 [23]: 540 nM
- EC50 ([24]; read-out: 6h caspase EC50, CMK, single agent): > 333 nM
- EC50 ([24]; read-out: AZD5991 6h EC50, CMK (AML), caspase 3/7 activation): > 30000 nM
- GI50 [25]: 13 nM
- EC50 ([26]; read-out: 6h caspase EC50, OCIM1, single agent): > 333 nM
- EC50 ([26]; read-out: AZD5991 6h EC50, OCIM1 (AML), caspase 3/7 activation): > 30000 nM
